Measured values from ChEMBL document CHEMBL1759982, “Hybrid compounds as new Bcr/Abl inhibitors” (Bioorg Med Chem Lett, 2011).
Active and inactive are the calls of the source. The rule behind the calls is not given here.

Tests used:
[1] = biological target: Bcr/Abl fusion protein (Homo sapiens, UniProt P00519); assay: Inhibition of Bcr/Abl by FRET-based Z-lyte assay; format: protein assay
[2] = tested on: K562; assay: Antiproliferative activity against human K562 cells; format: functional, cell-based
[3] = Antiproliferative activity against human KU812 cells; format: functional, cell-based
[4] = tested on: K562; assay: Antiproliferative activity against human imatinib-resistant K562 cells; format: functional, cell-based
[5] = biological target: Bcr/Abl fusion protein (Homo sapiens) (UniProt P00519+P11274); assay: Inhibition of Bcr/Abl autophosphorylation in human K562 cells after 4 hrs by Western blotting; format: cell-based
Bcr/Abl fusion protein (Homo sapiens), sequence (P00519 whole entry, looked up, the tested form may be a part): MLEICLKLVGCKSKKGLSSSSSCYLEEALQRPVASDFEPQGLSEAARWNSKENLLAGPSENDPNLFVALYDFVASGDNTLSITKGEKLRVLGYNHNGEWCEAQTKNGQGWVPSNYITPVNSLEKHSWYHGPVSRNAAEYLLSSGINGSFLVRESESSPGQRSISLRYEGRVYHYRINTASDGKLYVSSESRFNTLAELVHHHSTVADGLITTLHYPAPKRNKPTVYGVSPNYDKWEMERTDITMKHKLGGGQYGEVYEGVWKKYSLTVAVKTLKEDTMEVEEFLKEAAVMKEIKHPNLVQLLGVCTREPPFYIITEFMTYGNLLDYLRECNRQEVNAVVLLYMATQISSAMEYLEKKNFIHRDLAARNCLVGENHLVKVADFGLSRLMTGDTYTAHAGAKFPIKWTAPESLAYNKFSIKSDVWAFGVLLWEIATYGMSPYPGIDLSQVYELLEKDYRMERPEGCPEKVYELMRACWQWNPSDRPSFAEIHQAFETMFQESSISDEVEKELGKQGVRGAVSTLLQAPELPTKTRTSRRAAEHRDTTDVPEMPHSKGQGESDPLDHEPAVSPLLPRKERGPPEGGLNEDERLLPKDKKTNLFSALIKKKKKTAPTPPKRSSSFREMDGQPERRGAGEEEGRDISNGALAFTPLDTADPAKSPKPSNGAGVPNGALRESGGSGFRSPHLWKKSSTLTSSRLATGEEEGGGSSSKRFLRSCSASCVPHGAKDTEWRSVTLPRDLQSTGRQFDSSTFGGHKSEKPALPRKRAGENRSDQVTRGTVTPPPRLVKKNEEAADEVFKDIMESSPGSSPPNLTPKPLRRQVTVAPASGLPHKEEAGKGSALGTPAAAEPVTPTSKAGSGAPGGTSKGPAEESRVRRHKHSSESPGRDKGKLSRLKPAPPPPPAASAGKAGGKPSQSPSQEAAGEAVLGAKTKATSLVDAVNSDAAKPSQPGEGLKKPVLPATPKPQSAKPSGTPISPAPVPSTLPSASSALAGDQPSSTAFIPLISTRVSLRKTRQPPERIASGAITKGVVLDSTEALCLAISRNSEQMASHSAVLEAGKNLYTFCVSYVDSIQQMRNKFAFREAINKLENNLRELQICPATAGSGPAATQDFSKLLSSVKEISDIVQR
Bcr/Abl fusion protein (Homo sapiens), sequence (P11274 whole entry, looked up, the tested form may be a part): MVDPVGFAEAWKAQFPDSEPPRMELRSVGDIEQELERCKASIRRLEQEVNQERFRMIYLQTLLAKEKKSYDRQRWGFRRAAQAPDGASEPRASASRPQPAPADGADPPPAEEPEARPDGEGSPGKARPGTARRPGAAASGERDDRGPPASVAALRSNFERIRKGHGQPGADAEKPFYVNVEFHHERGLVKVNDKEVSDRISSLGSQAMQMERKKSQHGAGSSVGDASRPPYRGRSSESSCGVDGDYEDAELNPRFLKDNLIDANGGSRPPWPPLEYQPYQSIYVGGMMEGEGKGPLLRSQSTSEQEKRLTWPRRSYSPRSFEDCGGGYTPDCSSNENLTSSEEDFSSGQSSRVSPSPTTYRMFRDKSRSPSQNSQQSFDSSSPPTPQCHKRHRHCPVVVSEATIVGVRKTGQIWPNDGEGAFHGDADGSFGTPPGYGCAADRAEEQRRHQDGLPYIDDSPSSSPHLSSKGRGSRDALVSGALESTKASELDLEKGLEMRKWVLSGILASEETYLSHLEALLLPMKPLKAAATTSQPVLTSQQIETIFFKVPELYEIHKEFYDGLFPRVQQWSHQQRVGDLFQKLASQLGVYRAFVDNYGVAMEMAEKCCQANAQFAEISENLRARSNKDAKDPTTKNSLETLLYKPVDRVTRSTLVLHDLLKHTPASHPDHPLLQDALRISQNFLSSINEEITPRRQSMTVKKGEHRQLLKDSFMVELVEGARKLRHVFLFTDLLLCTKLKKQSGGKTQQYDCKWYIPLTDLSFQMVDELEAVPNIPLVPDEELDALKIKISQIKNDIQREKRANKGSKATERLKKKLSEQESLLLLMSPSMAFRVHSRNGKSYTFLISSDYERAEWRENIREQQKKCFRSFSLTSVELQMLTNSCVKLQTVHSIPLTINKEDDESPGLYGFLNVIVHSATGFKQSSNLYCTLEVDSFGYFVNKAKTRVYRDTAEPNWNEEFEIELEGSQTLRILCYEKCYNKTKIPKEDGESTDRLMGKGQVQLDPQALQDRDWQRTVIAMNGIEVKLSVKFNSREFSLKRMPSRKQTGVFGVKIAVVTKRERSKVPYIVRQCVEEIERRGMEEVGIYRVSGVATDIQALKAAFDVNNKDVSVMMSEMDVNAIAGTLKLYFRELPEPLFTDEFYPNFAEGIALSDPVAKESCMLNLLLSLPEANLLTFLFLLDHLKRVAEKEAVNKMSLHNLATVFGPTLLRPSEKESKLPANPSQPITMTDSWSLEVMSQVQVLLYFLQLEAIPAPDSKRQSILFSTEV

[6] = tested on: K562; assay: Cell cycle arrest in human K562 cells assessed as accumulation at G0/G1 phase at 20 nM by Flow cytometry (reference value: 49.42%); format: functional
[7] = tested on: K562; assay: Cell cycle arrest in human K562 cells assessed as accumulation at G0/G1 phase at 50 nM by Flow cytometry (reference value: 49.42%); format: functional
[8] = tested on: K562; assay: Cell cycle arrest in human K562 cells assessed as accumulation at G0/G1 phase at 100 nM by Flow cytometry (reference value: 49.42%); format: functional
[9] = tested on: K562; assay: Cell cycle arrest in human K562 cells assessed as accumulation at S phase at 20 nM by Flow cytometry (reference value: 46.15%); format: functional
[10] = tested on: K562; assay: Cell cycle arrest in human K562 cells assessed as accumulation at S phase at 50 nM by Flow cytometry (reference value: 46.15%); format: functional
[11] = tested on: K562; assay: Cell cycle arrest in human K562 cells assessed as accumulation at S phase at 100 nM by Flow cytometry (reference value: 46.15%); format: functional
[12] = tested on: K562; assay: Cell cycle arrest in human K562 cells assessed as accumulation at G2/M1 phase at 20 nM by Flow cytometry (reference value: 4.43%); format: functional
[13] = tested on: K562; assay: Cell cycle arrest in human K562 cells assessed as accumulation at G2/M1 phase at 50 nM by Flow cytometry (reference value: 4.43%); format: functional
[14] = tested on: K562; assay: Cell cycle arrest in human K562 cells assessed as accumulation at G2/M1 phase at 100 nM by Flow cytometry (reference value: 4.43%); format: functional
[15] = tested on: K562; assay: Induction of apoptosis in human K562 cells assessed as viable cells at 20 nM using annexin V-propidium iodide and annexin V staining by flow cytometry (reference value: 87.02%); format: functional; conditions: read-out: Activity
[16] = tested on: K562; assay: Induction of apoptosis in human K562 cells assessed as viable cells at 50 nM using annexin V-propidium iodide and annexin V staining by flow cytometry (reference value: 87.02%); format: functional; conditions: read-out: Activity
[17] = tested on: K562; assay: Induction of apoptosis in human K562 cells assessed as viable cells at 100 nM using annexin V-propidium iodide and annexin V staining by flow cytometry (reference value: 87.02%); format: functional; conditions: read-out: Activity
[18] = tested on: K562; assay: Induction of apoptosis in human K562 cells assessed as early apoptotic cells at 20 nM using annexin V-propidium iodide and annexin V staining by flow cytometry (reference value: 3.34%); format: functional
[19] = tested on: K562; assay: Induction of apoptosis in human K562 cells assessed as early apoptotic cells at 50 nM using annexin V-propidium iodide and annexin V staining by flow cytometry (reference value: 3.34%); format: functional
[20] = tested on: K562; assay: Induction of apoptosis in human K562 cells assessed as early apoptotic cells at 100 nM using annexin V-propidium iodide and annexin V staining by flow cytometry (reference value: 3.34%); format: functional
[21] = tested on: K562; assay: Induction of apoptosis in human K562 cells assessed as late apoptotic cells at 20 nM using annexin V-propidium iodide and annexin V staining by flow cytometry (reference value: […]%); format: functional
[22] = tested on: K562; assay: Induction of apoptosis in human K562 cells assessed as late apoptotic cells at 50 nM using annexin V-propidium iodide and annexin V staining by flow cytometry (reference value: […]%); format: functional
[23] = tested on: K562; assay: Induction of apoptosis in human K562 cells assessed as late apoptotic cells at 100 nM using annexin V-propidium iodide and annexin V staining by flow cytometry (reference value: […]%); format: functional
[24] = tested on: K562; assay: Induction of apoptosis in human K562 cells assessed as pre-necrotic cells at 20 nM using annexin V-propidium iodide and annexin V staining by flow cytometry (reference value: 1.42%); format: functional
[25] = tested on: K562; assay: Induction of apoptosis in human K562 cells assessed as pre-necrotic cells at 50 nM using annexin V-propidium iodide and annexin V staining by flow cytometry (reference value: 1.42%); format: functional
[26] = tested on: K562; assay: Induction of apoptosis in human K562 cells assessed as pre-necrotic cells at 100 nM using annexin V-propidium iodide and annexin V staining by flow cytometry (reference value: 1.42%); format: functional

Bcr/Abl fusion protein, sequence (P00519 whole entry, the tested form may be a part): as the sequence (P00519 whole entry, looked up, the tested form may be a part) above
Bcr/Abl fusion protein, sequence (P11274 whole entry, further chain, the tested form may be a part): as the sequence (P11274 whole entry, looked up, the tested form may be a part) above

Work on `Cc1cn(-c2cc(Cl)cc(NC(=O)c3ccc(C)c(Nc4nc(-c5cccnc5)cs4)c3)c2)cn1` yielded an IC50 [1] of 1300 nM, an IC50 [2] of 812 nM and an IC50 [3] of 518 nM. For the same compound, the IC50 [4] was 2360 nM.

`Cc1ccc(C(=O)Nc2cc(-c3cnn(C)c3)cc(C(F)(F)F)c2)cc1Nc1nc(-c2cccnc2)cs1` showed an IC50 [1] of 491 nM, an IC50 [2] of 27 nM and an IC50 [3] of 27.1 nM. For the same compound, the IC50 [4] was 5380 nM.

`Cc1ccc(NC(=O)c2ccc(CN3CCN(C)CC3)cc2)cc1Nc1nccc(-c2cccnc2)n1` [IMATINIB] showed an IC50 [2] of 380 nM, an IC50 [3] of 337 nM and an IC50 [4] of 6.05 nM.

With `Cc1cn(-c2cc(NC(=O)c3ccc(C)c(Nc4nc(-c5cccnc5)cs4)c3)cc(C(F)(F)F)c2)cn1` the IC50 [1] was 671 nM, the IC50 [2] was 28 nM and the IC50 [3] was 30 nM. For the same compound, the IC50 [4] was 1830 nM.

For `Cc1cn(-c2cc(NC(=O)c3ccc(C)c(Nc4nc(-c5cccnc5)cs4)c3)cc(C34CC5CC(CC(C5)C3)C4)c2)cn1`, the IC50 [1] was > 2000 nM, the IC50 [2] was 1060 nM and the IC50 [3] was 2800 nM. It also gave an IC50 [4] of 11800 nM.

For `Cc1cn(-c2cc(NC(=O)c3ccc(C)c(Nc4nc(-c5cccnc5)cs4)c3)cc(C(C)(C)C)c2)cn1`, the IC50 [1] was 20.1 nM, the IC50 [2] was 10 nM and the IC50 [3] was 11 nM. The IC50 [4] was 640 nM, the inhibition [5] was “Active” and the Activity [6] was 55.19%. It also gave an Activity [7] of 69.3%, an Activity [8] of 75.53% and an Activity [9] of 42.66%. It also gave an Activity [10] of 30.45%, an Activity [11] of 24.47% and an Activity [12] of 2.15%. It also gave an Activity [13] of 0.21%, an Activity [14] of 0% and a viability at 0.02 µM [15] of 95.7%. It also gave a viability at 0.05 µM [16] of 73.8%, a viability at 0.1 µM [17] of 56.7% and an Activity [18] of 5.06%. It also gave an Activity [19] of 6.87%, an Activity [20] of 11.11% and an Activity [21] of 8.15%. The Activity [22] was 16.34%, the Activity [23] was 27.04% and the Activity [24] was 1.14%. The Activity [25] was 3.11% and the Activity [26] was 5.18%.

Compound `Cc1ncn(-c2cc(NC(=O)c3ccc(C)c(Nc4nc(-c5cccnc5)cs4)c3)cc(C(F)(F)F)c2)n1` has an IC50 [1] of 480 nM, an IC50 [2] of 26 nM and an IC50 [3] of 38 nM. The IC50 [4] was 1630 nM.

Compound `Cc1ccc(C(=O)Nc2cc(-n3ccnc3)cc(C(F)(F)F)c2)cc1Nc1nc(-c2cccnc2)cs1` has an IC50 [1] of 507 nM, an IC50 [2] of 28 nM and an IC50 [3] of 36 nM. The IC50 [4] was 2140 nM.

Work on `Cc1cn(-c2cc(NC(=O)c3cccc(Nc4nc(-c5cccnc5)cs4)c3)cc(C(F)(F)F)c2)cn1` yielded an IC50 [1] of 3780 nM, an IC50 [2] of 3190 nM and an IC50 [3] of 2730 nM. For the same compound, the IC50 [4] was 1720 nM.

Compound `Cc1cn(-c2cc(NC(=O)c3ccc(C)c(Nc4nc(-c5cccnc5)cs4)c3)cc(C(C)C)c2)cn1` has an IC50 [1] of 177 nM, an IC50 [2] of 31 nM and an IC50 [3] of 51 nM. The IC50 [4] was 2910 nM.

`Cc1ccc(C(=O)Nc2cc(-c3cn(C)nn3)cc(C(F)(F)F)c2)cc1Nc1nc(-c2cccnc2)cs1` gave an IC50 [1] of 277 nM, an IC50 [2] of 57 nM and an IC50 [3] of 90 nM. It also gave an IC50 [4] of 3510 nM.

Compound `Cc1cc(NC(=O)c2ccc(C)c(Nc3nc(-c4cccnc4)cs3)c2)cc(-n2cnc(C)c2)c1` has an IC50 [1] of 774 nM, an IC50 [2] of 449 nM and an IC50 [3] of 871 nM. The IC50 [4] was 3290 nM.

`CCc1ccc(C(=O)Nc2cc(-n3cnc(C)c3)cc(C(F)(F)F)c2)cc1Nc1nc(-c2cccnc2)cs1` gave an IC50 [1] of 5510 nM, an IC50 [2] of 1600 nM and an IC50 [3] of 945 nM. The IC50 [4] was 2720 nM.

With `Cc1cn(-c2cc(NC(=O)c3ccc(C)c(Nc4nccc(-c5cccnc5)n4)c3)cc(C(F)(F)F)c2)cn1` [NILOTINIB] the IC50 [2] was 6.5 nM, the IC50 [3] was 3.4 nM and the IC50 [4] was 260 nM.

In the case of `Cc1ccc(C(=O)Nc2cccc(C(F)(F)F)c2)cc1Nc1nc(-c2cccnc2)cs1`, the IC50 [1] is reported as > 10000 nM, the IC50 [2] is reported as 3000 nM and the IC50 [3] is reported as 1240 nM. For the same compound, the IC50 [4] was 1440 nM.
